The term IC50 denotes the concentration at which inhibition is half-maximal.

One assay concerns the target T1, rat liver ER GluII (Rattus norvegicus, UniProt A0A8I6GFL3).
T1 construct: Rat liver ER, II; from tissue; host or cells: liver of male Wistar rats
Description: ER α-glucosidase II inhibition with native-like fluorescently labelled glycan substrate (HPLC). Format: biochemical. Here is the method:
% Inhibition (C) Glc1→ Glc0
Supplemental Figure 1: In vitro inhibition of GluII by 4. Enzyme activity assays were carried out using rat liver ER GluII with either α-p-nitrophenylglucoside ( α-PNPG, A) or ﬂuorescently labelled glycan ( B and C) as substrate. The curves show the relationship between ToP-DNJ 4 concentration and inhibition of the enzymatic activity. The iminosugar inhibits the enzymatic catalysis of the reactions indepen-dent of substrate, but with diﬀering IC 50 values: 9.0 µm for α-PNPG; 14 µm for Glc2Man7GlcNAc2; 56 µm for Glc1Man7GlcNAc2. […]
4 Enzyme Inhibition Assays
All rat enzymes were isolated from 18-week-old, male Wistar rats, while human lysosomal α-glucosidase was obtained in commercially available form from Sanoﬁ Genzyme. Inhibition of isolated glucosidases was evaluated as described previously. 3 Brieﬂy, maltase, isomaltase, sucrase, and cellobiase were used as partially puriﬁed tissue extracts. Inhibition assays for each enzyme were performed with the respective natural substrate, and release of d-glucose measured by Glucose B-test (Wako Diagnostics). Assays of rat ER α-glucosidase II and human lysosomal α-glucosidase inhibition were conducted with α-p-nitrophenylglucoside as substrate; 400 mm Na2CO3 was added to quench these reactions, and the extent of hydrolysis was evaluated as absorbance at 400 nm by spectrophotometer. […]

The test system of assay [1] is DENV2 strain 16681 in primary human MDMΦ. Description: DENV primary MDMΦ antiviral assay (infectious titer by plaque assay). Format: cell-based, dengue virus. The following applies: Dengue virus, DENV2; dengue-infected MDMΦ, 7 donors; read-out: IC50 for DENV inhibition (infectious virus titer). As to the method: each well was scored as either positive (≥ 5 stained cells) or negative. TCID50 values were calculated according to the method of Reed and Muench.8
5.7 DENV Primary MDMΦ Antiviral Assay
DENV2 strain 16681 (a gift from Prof. E. Gould, Centre for Ecology and Hydrology, Oxford, United Kingdom) was propagated in the C6/36 cell line. In the antiviral assay, MDMΦ cells (7 donors) were seeded in a 24-well plate at a density of 1× 10^6 cells/well in 1 mL of growth media. The cells were inoculated for 2 h with DENV2 16681 strain at an MOI of 1. […]
The infectious DENV titres in supernatants collected were evaluated by plaque assay as described previously.9 Brieﬂy, LLC-MK2 cells were seeded in conﬂuent monolayers in a 12-well plate. Four 10-fold dilutions of each supernatant to be analyzed were prepared in minimum essential media (MEM, Gibco), supplemented with 100 µg mL−1 streptomycin, 100 U mL−1 penicillin and 10% (v/v) FCS. […]
After 1 d, plaques were observed and counted from the underside of the plate by eye. […]
18 healthy male BALB/c mice (8 – 12 weeks old) weighing between 20 and 35 g were procured from ACTREC, Mumbai, India. […] Temperature and humidity were recorded by an auto-controlled data logging system and maintained at 22± 3◦C and 55± 15% humidity, respectively. […]

Read-outs that look alike come from different tables or passages of the source.

T1 sequence (A0A8I6GFL3 33-944): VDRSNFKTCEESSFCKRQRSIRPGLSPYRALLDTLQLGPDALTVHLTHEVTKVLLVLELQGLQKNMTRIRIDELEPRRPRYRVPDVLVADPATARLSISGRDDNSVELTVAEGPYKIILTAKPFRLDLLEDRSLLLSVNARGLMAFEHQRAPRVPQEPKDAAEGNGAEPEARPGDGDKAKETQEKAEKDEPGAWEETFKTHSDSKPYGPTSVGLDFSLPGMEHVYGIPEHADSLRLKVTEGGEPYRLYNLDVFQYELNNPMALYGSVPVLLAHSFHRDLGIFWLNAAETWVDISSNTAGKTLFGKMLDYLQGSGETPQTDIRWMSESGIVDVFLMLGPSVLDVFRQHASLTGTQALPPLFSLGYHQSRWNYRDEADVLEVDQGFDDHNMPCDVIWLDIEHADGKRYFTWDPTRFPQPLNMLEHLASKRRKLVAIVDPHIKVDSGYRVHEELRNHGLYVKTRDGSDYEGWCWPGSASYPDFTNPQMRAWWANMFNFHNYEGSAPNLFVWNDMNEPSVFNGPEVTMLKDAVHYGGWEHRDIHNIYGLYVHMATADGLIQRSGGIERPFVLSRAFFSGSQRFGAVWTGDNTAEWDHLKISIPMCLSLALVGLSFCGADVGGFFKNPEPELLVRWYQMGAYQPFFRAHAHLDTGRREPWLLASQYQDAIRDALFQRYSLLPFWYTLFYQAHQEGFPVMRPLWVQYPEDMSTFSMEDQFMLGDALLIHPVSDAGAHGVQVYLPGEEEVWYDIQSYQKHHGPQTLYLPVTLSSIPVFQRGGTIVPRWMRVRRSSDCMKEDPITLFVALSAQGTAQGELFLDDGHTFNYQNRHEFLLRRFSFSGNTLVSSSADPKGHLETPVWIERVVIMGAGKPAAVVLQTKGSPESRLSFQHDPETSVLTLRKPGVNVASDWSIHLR
T1 sequence (A0A8I6ADW9 1-525 partner): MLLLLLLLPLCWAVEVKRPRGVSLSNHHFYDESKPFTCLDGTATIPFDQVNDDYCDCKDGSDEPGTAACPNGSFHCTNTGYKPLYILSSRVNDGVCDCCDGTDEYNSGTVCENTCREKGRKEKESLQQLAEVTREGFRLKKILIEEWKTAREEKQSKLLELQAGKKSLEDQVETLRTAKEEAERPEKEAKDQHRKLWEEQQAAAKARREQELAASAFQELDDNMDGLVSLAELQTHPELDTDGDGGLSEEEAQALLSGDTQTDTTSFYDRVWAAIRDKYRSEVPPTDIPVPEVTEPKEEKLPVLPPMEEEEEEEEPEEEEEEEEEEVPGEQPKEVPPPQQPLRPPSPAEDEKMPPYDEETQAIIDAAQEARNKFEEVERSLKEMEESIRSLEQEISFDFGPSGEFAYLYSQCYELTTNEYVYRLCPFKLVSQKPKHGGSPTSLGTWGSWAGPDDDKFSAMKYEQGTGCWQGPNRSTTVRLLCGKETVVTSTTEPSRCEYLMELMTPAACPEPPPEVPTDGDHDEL

Take `Cc1c(C)c2c(c(C)c1OCCCCCN1CC(O)C(O)C(O)C1CO)CCC(C)(CCCC(C)CCCC(C)CCCC(C)C)O2` (stereo not drawn) [Compound 4, 5′-tocopheroxypentyl-DNJ]: the IC50 on rat liver ER GluII (first GluII reaction, fluorescently labelled Glc2Man7GlcNAc1 substrate, read-out: IC50 for the conversion of diglucosylated to monoglucosylated glycan by GluII) came out at 14 µM; on rat liver ER GluII (second GluII reaction, fluorescently labelled glycan substrate, read-out: IC50 for the conversion of monoglucosylated to nonglucosylated glycan by GluII), 56 µM; in assay [1], 12.7 µM.

These data come from article PMC5824344 (ACS Chemical Biology, 2017).
